According to patent US8586572B2, “3-phenyl-azetidine derivatives useful as modulators of cortical catecholaminergic neurotransmission” (Integrative Research Laboratories Sweden AB, priority 2008, dated 2013):
Where a name gives a salt, the structure may show the parent alone.

How the values were obtained:
[1] = test system: extracellular NA, DA and 5-HT in striatum; assay: Microdialysis in awake and freely moving rats, dorsal striatum; type: in vivo, rat; conditions: 50 μmol/kg s.c., awake freely moving rats; for DA Stri ± SEM, maximum effect compared to baseline values: dopamine in striatum dialysate; for 5-HT Stri ± SEM, maximum effect compared to baseline values: serotonin in striatum dialysate
From the text: (§1) Male Sprague-Dawley rats weighing 220-320 g were used throughout the experiments. Before the experiment the animals were group housed, five animals in each cage, with free access to water and food. The animals were housed at least one week after arrival prior to surgery and use in the experiments. Each rat was used only once for microdialysis.
(§2) We use a modified version (Waters et al., 1994) of the I-shaped probe (Santiago and Westerink, 1990). The dialysis membrane we use is the AN69 poly-acrylonitrile/sodiummethalylsulfonate copolymer (HOSPAL; o.d./i.d. 310/220 μm: Gambro, Lund, Sweden). In the dorsal striatum we use probes with an exposed length of 3 mm of dialysis membrane and in the prefrontal cortex the corresponding length is 2.5 mm. The rats were operated under isoflurane inhalationanesthesia while mounted into a Kopf stereotaxic instrument. Co-ordinates were calculated relative to bregma; dorsal striatum AP +1, ML ±2.6, DV −6.3; Pf cortex, AP +3.2, 8° ML ±1.2, DV −4.0 according to (Paxinos & Watson, 1986). The dialysis probe was positioned in a burr hole under stereotaxic guidance and cemented with phosphatine dental cement.
(§3) The rats were housed individually in cages for 48 h before the dialysis experiments, allowing them to recover from surgery and minimizing the risk of drug interactions with the anaesthetic during the following experiments. During this period the rats had free access to food and water. On the day of experiment the rats were connected to a micro perfusion pump via a swiwel and were replaced in the cage where they could move freely within its confinements. The perfusion medium was a Ringer's solution containing in mmol/l: NaCl; 140, CaCl2; 1.2, KCl; 3.0, MgCl2; 1.0 and ascorbic acid; 0.04 according to (Moghaddam & Bunney, 1989). The pump was set to a perfusion speed of 2 μl/min and 40 μl samples were collected every 20 min. Each sample was analyzed at two HPLC systems. On an autoinjector (CMA 200) with a 10-port valve (Valco C10WE), holding two sample loops in series (4 μl and 20 μl), each brain dialysate sample is loaded in both loops simultaneously. At injection the 20 μl sample is introduced into a column switching system (reverse-phase combined with reverse-phase ion-pairing) for dopamine (DA), noradrenaline (NA), normetanephrine (NM), 3-methoxytyramine (3-MT) and serotonin (5-hydroxytryptamine, 5-HT) determination, while the 4 μl sample is introduced on a reverse-phase column for the chromatography of the acidic monoamine metabolites 3,4-di-hydroxyphenylacetic acid (DOPAC), homovanillic acid (HVA) and 5-hydroxyindoleacetic acid (5-HIAA). The currents generated by the two EC detectors are converted to digital data and evaluated using Chromeleon software (Dionex) on a PC. The method sample turn over time was 4.5 min and two parallel experiments are normally analyzed simultaneously on the system.
(§4) After the experiment the rats were uncoupled from the perfusion pump and decapitated. Their brains were rapidly taken out and fixed in Neo-fix solution (Kebolab, Sweden) for subsequent inspection of probe localisation. The Animal Ethics Committee in Göteborg, Sweden approved the procedures applied in these experiments.
(§5) The microdialysis was performed in awake and freely moving rats.
(§6) Dopamine=DA; Norepinephrine=NA; Serotonin=5-HT; Stri=Striatum; PFC=Prefrontal Cortex.

[2] = test system: extracellular NA, DA and 5-HT in prefrontal cortex; assay: Microdialysis in awake and freely moving rats, prefrontal cortex; type: in vivo, rat; conditions: 50 μmol/kg s.c., awake freely moving rats; for DA PFC ± SEM, maximum effect compared to baseline values: dopamine in prefrontal cortex dialysate; for NA PFC ± SEM, maximum effect compared to baseline values: norepinephrine in prefrontal cortex dialysate; for 5-HT PFC ± SEM, maximum effect compared to baseline values: serotonin in prefrontal cortex dialysate
From the text: as §1, §2, §3, §4, §5, §6

| Compound | melting point [°C] | DA Stri ± SEM, maximum effect compared to baseline values [1] | 5-HT Stri ± SEM, maximum effect compared to baseline values [1] | DA PFC ± SEM, maximum effect compared to baseline values [2] | NA PFC ± SEM, maximum effect compared to baseline values [2] | 5-HT PFC ± SEM, maximum effect compared to baseline values [2] | other results |
| --- | --- | --- | --- | --- | --- | --- | --- |
| CCN1CC(O)(c2cc(F)cc(F)c2)C1 (as salt: fumaric acid salt) | 140 to 141 | – | – | – | – | – | – |
| CCN1CC(O)(c2cc(F)cc(Cl)c2)C1 (as salt: fumaric acid salt) | 166 to 168 | – | – | – | – | – | – |
| CCN1CC(O)(c2cccc(Cl)c2F)C1 (as salt: fumaric acid salt) | 172 to 173 | – | – | – | – | – | – |
| CCN1CC(O)(c2cccc(F)c2F)C1 (as salt: fumaric acid salt) [Example 1, 3-(2,3-difluorophenyl)-1-ethylazetidin-3-ol] | 148 to 150 | – | – | – | – | – | – |
| CCN1CC(O)(c2ccc(F)c(F)c2)C1 (as salt: fumaric acid salt) [Example 2, 3-(3,4-difluorophenyl)-1-ethylazetidin-3-ol] | 177 to 179 | – | – | – | – | – | – |
| COC1(c2cccc(F)c2F)CNC1 (as salt: oxalic acid salt) [Example 8, 3-(2,3-difluorophenyl)-3-methoxyazetidine] | 141 to 142 | – | – | – | – | – | – |
| CCN1CC(OC)(c2cccc(F)c2F)C1 (as salt: oxalic acid salt) [Example 9, 3-(2,3-difluorophenyl)-1-ethyl-3-methoxyazetidine] | 147 to 148 | – | – | – | – | – | – |
| CCN1CC(O)(c2cccc(F)c2F)C1 [Example 1, 3-(2,3-difluorophenyl)-1-ethylazetidin-3-ol] | – | 219 ± 113% of control | 113 ± 13% of control | 211 ± 61% of control | 438 ± 91% of control | 130 ± 11% of control | NA Stri ± SEM, maximum effect compared to baseline values ([1]; norepinephrine in striatum dialysate): 261 ± 151% of control |
| CCN1CC(O)(c2ccc(F)c(F)c2)C1 [Example 2, 3-(3,4-difluorophenyl)-1-ethylazetidin-3-ol] | – | 112% of control | 162% of control | 309 ± 62% of control | 397 ± 59% of control | 182 ± 33% of control | – |
| CCN1CC(OC)(c2cccc(F)c2F)C1 [Example 9, 3-(2,3-difluorophenyl)-1-ethyl-3-methoxyazetidine] | – | 122 ± 12% of control | 134 ± 22% of control | 215 ± 54% of control | 298 ± 79% of control | 169 ± 65% of control | – |
